The structures appear in SMILES notation.

Assay [1] concerns the target T1, Human 5HT1A receptor (Homo sapiens, UniProt P08908).
T1 construct: expressed in transfected cells; host or cells: L929 cells (stably transfected)
T1 sequence (P08908 1-422): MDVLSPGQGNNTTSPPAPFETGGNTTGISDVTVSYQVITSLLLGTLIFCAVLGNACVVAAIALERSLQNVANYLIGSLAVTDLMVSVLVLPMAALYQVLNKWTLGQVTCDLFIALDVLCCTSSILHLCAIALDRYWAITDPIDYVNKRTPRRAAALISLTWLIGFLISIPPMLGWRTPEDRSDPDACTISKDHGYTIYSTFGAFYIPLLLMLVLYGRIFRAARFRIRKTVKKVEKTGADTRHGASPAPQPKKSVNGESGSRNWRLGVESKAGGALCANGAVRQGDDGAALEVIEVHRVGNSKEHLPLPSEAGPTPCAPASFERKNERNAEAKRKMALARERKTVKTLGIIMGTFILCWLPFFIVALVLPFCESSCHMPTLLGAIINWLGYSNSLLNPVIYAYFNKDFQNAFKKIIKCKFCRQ
As to the kind of experiment: Binding experiment for 5-HT1A receptor ([3H]8OHDPAT). The following applies: transfected L929 cell membranes, [3H]8OHDPAT. How it is done: (§1) The interaction of the compounds of Formula (I) with dopamine-receptors, h5HT-transporter and h5HT1A receptor was assessed in in vitro radioligand binding experiments. In general, a low concentration of a radioligand with a high binding affinity for a particular receptor or transporter is incubated with a sample of a tissue preparation enriched in a particular receptor or transporter or with a preparation of cells expressing cloned human receptors in a buffered medium. During the incubation, the radioligand binds to the receptor or transporter. When equilibrium of binding is reached, the receptor bound radioactivity is separated from the non-bound radioactivity, and the receptor- or transporter-bound activity is counted. The interaction of the test compounds with the receptor is assessed in competition binding experiments. Various concentrations of the test compound are added to the incubation mixture containing the receptor- or transporter preparation and the radioligand. The test compound in proportion to its binding affinity and its concentration inhibits binding of the radioligand.
Human 5HT1A receptor-transfected L929 cells were collected by scraping into ice-cold Tris-HCl buffer (50 mM, pH 7.4). The suspension was centrifuged (23 500×g, 10 min, 4° C.) and pellets stored at −70° C. until required. They were then thawed and briefly homogenised using an Ultra-Turrax T25 homogeniser prior to dilution to an appropriate protein concentration optimised for specific and non-specific binding. [^3H]80HDPAT (NEN, specific activity 127 Ci/mmol) was diluted in Tris-HCl assay buffer containing CaCl2 (50 mM and 4 mM, respectively; pH 7.7) at a concentration of 5 nmol/L. Prepared radioligand (50 μl) was then incubated (30 min, 37° C.) with membrane preparations from L929 cells stably-transfected with the h5HT1A gene construct (400 μl) and with 50 μl of either the 10% DMSO control, spiroxatrine (10^−6 mol/L final concentration), or compound of interest. Membrane-bound activity was detected by filtration through a Packard Filtermate harvester onto Unifilterplates, washing with ice-cold Tris-HCl buffer (3×4 ml), followed by drying. Scintillation fluid was added and membranes were counted in a Topcount scintillation counter. % Specific bound and competition binding curves were calculated using S-Plus software (Insightful).

In assay [2] the target is T2, Human Dopamine D2L receptor (Homo sapiens, UniProt P14416).
T2 construct: expressed in transfected cells; host or cells: CHO cells
T2 sequence (P14416 whole entry): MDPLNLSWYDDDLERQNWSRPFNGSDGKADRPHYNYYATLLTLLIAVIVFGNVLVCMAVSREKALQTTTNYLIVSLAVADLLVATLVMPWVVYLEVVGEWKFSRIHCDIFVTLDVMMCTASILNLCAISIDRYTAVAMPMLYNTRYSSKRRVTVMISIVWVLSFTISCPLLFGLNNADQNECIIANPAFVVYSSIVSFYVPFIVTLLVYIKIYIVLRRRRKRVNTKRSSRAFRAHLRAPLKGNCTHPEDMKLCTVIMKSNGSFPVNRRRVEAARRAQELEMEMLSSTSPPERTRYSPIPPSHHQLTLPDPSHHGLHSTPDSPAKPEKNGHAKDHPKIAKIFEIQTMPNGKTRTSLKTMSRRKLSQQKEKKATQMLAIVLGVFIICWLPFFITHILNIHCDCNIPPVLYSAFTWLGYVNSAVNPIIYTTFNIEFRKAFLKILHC
As to the kind of experiment: Binding experiment for dopamine D2 receptor ([3H]Spiperone). The conditions noted are these: D2L-transfected CHO cell membranes. How it is done:
as §1
Human Dopamine D2L receptor-transfected CHO cells were collected by scraping into ice-cold Tris-HCl buffer (50 mM, pH 7.4). The suspension was centrifuged (23 500×g, 10 min, 4° C.) and pellets stored at −70° C. until required. They were then thawed and briefly homogenised using an Ultra-Turrax T25 homogeniser prior to dilution to an appropriate protein concentration optimised for specific and non-specific binding. [^3H]Spiperone (NEN, specific activity ˜70 Ci/mmol) was diluted in Tris-HCl assay buffer containing NaCl, CaCl2, MgCl2, KCl (50, 120, 2, 1, and 5 mM respectively, adjusted to pH 7.7 with HCl) at a concentration of 2 nmol/L. Prepared radioligand (50 μl) was then incubated (30 min, 37° C.) with membrane preparations pre-diluted to an appropriate protein concentration (400 μl), and with 50 μl of either the 10% DMSO control, Butaclamol (10^−6 mol/L final concentration), or compound of interest. Membrane-bound activity was detected by filtration through a Packard Filtermate harvester onto Unifilterplates, washing with ice-cold Tris-HCl buffer (50 mM; pH8.0; 3×4 ml). Filters were allowed to dry before adding scintillation fluid and counting in a Topcount scintillation counter. % Specific bound and competition binding curves were calculated using S-Plus software (Insightful).

In assay [3] the target is T3, Human Dopamine D3 receptor (Homo sapiens, UniProt P35462).
T3 construct: expressed in transfected cells; host or cells: CHO cells
T3 sequence (P35462 whole entry): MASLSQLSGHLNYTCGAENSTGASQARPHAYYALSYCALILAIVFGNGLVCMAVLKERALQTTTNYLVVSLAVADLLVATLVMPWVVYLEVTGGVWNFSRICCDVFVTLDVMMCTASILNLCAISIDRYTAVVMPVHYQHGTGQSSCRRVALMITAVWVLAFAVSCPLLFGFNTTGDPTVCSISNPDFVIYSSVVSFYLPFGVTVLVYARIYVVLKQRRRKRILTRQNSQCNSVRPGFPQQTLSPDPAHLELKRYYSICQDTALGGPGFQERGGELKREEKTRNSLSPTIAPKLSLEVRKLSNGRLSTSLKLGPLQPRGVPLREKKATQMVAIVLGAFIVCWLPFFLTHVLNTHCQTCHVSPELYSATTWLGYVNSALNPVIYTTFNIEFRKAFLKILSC
As to the kind of experiment: Binding experiment for dopamine D3 receptor ([125I]Iodosulpride). The conditions noted are these: transfected CHO cell membranes. The procedure:
as §1
Human Dopamine D3 receptor-transfected CHO cells were collected by scraping into ice-cold Tris-HCl buffer (50 mM, pH 7.4). The suspension was centrifuged (23 500×g, 10 min, 4° C.) and pellets stored at −70° C. until required. They were then thawed and briefly homogenised using an Ultra-Turrax T25 homogeniser prior to dilution to an appropriate protein concentration optimised for specific and non-specific binding. [^125I]Iodosulpride (Amersham, specific activity 2000 Ci/mmol) was diluted in Tris-HCl assay buffer containing NaCl, CaCl2, MgCl2, KCl and BSA (50, 120, 2, 1, 5 mM, 0.1% respectively, adjusted to pH 7.7 with HCl) at a concentration of 2 nmol/L. Prepared radioligand (20 μl) was incubated (60 min, RT) and with 20 μl of either the 10% DMSO control, Risperidone (10^−6 mol/L final concentration), or compound of interest, then with membrane preparations (80 μl). Overnight incubation followed after addition of WGA-coated PVT SPA beads (250 μl; Amersham) and membrane-bound counts measured in a Wallac Microbeta. % Specific bound and competition binding curves were calculated using S-Plus software (Insightful).

In assay [4] the target is T4, human 5HT transporter (Homo sapiens, UniProt P31645).
T4 construct: host or cells: HEK cells
T4 sequence (P31645 whole entry): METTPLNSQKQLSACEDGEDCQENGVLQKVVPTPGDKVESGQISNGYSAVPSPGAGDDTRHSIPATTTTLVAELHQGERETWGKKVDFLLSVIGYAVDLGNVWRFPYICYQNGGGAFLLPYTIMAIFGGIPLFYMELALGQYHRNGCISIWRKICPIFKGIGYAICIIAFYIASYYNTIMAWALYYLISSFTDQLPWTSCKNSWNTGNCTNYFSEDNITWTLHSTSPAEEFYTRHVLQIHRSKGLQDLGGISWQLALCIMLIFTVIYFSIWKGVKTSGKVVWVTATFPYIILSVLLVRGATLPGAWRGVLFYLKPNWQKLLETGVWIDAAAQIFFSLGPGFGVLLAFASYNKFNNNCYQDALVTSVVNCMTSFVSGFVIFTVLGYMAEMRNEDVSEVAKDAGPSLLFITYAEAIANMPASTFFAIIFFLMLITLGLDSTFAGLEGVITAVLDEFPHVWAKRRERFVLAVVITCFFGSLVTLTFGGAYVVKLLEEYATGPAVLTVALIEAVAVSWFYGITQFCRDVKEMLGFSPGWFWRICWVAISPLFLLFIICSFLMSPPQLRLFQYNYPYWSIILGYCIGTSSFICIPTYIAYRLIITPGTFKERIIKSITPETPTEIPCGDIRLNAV
As to the kind of experiment: Binding experiment for 5-HT transporter ([3H]Paroxetine). The conditions noted are these: transfected HEK cell membranes, [3H]Paroxetine. The procedure: as §1
Frozen human 5HT transporter-transfected HEK cells (Perkin Elmer, Brussels) were thawed and briefly homogenised using an Ultra-Turrax T25 homogeniser prior to dilution to an appropriate protein concentration optimised for specific and non-specific binding. [^3H]Paroxetine (NEN, specific activity 20 Ci/mmol) was diluted in Tris-HCl assay buffer containing NaCl and KCl (50 mM, 120 mM and 5 mM, respectively; pH 7.4) at a concentration of 5 nmol/L. Prepared radioligand (25 μl) was then incubated (60 min, 25° C.) with membrane preparations (200 μl) and with 25 μl of either 10% DMSO control, Inipramine (10^−6 mol/L final concentration), or compound of interest. Membrane-bound activity was detected by filtration through a Packard Filtermate harvester onto Unifilterplates pre-soaked in 0.1% PEI, washing with ice-cold assay buffer (3×4 ml). Filters were dried prior to addition of scintillation fluid and then counting in a Topcount scintillation counter. % Specific bound and competition binding curves were calculated using S-Plus software (Insightful).

In the case of `COc1cc2c(cc1OC)C1=NOC(CN3CCC(c4c[nH]c5ccc(C#N)cc45)CC3)C1CO2` (racemic) [Compound 24], the “pIC50 5-HT1A” value in assay [1] is listed as 8.7. Moreover, the “pIC50 D2” value in assay [2] came to 6.4. The “pIC50 D3” value in assay [3] is listed as 6.9. Moreover, the “pIC50 5HTT” value in assay [4] came to 7.4.
On the same counts, the results for `COc1cc2c(cc1OC)C1=NOC(CN3CC=C(c4c[nH]c5ccc(Cl)cc45)CC3)C1CO2` (racemic) [Compound 25] are 8.3, 6.6, 6.9 and 7.1.
In the same order, the values of `COc1cc2c(cc1OC)C1=NOC(CN3CCC(c4c[nH]c5cc(F)ccc45)CC3)C1CO2` (racemic) [Compound 26] are 8.2, 7.9, 6.7 and 7.6.
On the same counts, the results for `COc1cc2c(cc1OC)C1=NOC(CN3CC=C(c4c[nH]c5cc(F)ccc45)CC3)C1CO2` (racemic) [Compound 27] are 7.2, 6.9, 6.4 and 7.6.
Turning to `COc1cc2c(cc1OC)C1=NOC(CN3CCC(c4c[nH]c5c(F)cccc45)CC3)C1CO2` (racemic) [Compound 30], the “pIC50 5-HT1A” value in assay [1] worked out at 7.4. The “pIC50 D2” value in assay [2] came to 6.0. Also, in assay [3], the “pIC50 D3” value was found to be 6.4. Further, in assay [4], the “pIC50 5HTT” value was determined as 6.5.
As for `COc1cc2c(cc1OC)C1=NOC(CN3CCC(c4c[nH]c5ccc(C)cc45)CC3)C1CO2` (racemic) [Compound 31], the IC50 was 3.16 nM in assay [1] (read-out: pIC50 5-HT1A (converted)), 398 nM in assay [2] (read-out: pIC50 D2 (converted)), 398 nM in assay [3] (read-out: pIC50 D3 (converted)) and 200 nM in assay [4] (read-out: pIC50 5HTT (converted)).
Turning to `COc1cc2c(cc1OC)C1=NOC(CN3CCC(c4c[nH]c5ccc(Cl)cc45)CC3)C1CO2` (racemic) [Compound 32], the “pIC50 5-HT1A” value in assay [1] was 8.5. Also, in assay [2], the “pIC50 D2” value was found to be 6.8. Besides, the “pIC50 D3” value in assay [3] is 6.6. Besides, in assay [4], the “pIC50 5HTT” value was determined as 7.4.
As to `COc1cc2c(cc1OC)C1=NOC(CN3CC=C(c4c[nH]c5ccc(F)cc45)CC3)C1CO2` (single isomer, unassigned) [Compound 3], in assay [1], the “pIC50 5-HT1A” value stood at 6.8. The “pIC50 D2” value in assay [2] stood at 6.0. The “pIC50 D3” value in assay [3] is 7.0. Further, in assay [4], the “pIC50 5HTT” value was 7.4.
On the same counts, the results for `COc1cc2c(cc1OC)C1=NOC(CNCCCc3c[nH]c4ccc(F)cc34)C1CO2` (single isomer, unassigned) [Compound 4] are 8.6, 6.1, 6.7 and 7.8.
In the same order, the values of `COc1cc2c(cc1OC)C1=NOC(CNCCCc3c[nH]c4ccc(F)cc34)C1CO2` (single isomer, unassigned) [Compound 5] are greater than 9, 6.6, 7.0 and 7.2.
With `COc1cc2c(cc1OC)C1=NOC(CN3CC=C(c4c[nH]c5ccccc45)CC3)C1CO2` (single isomer, unassigned) [Compound 6], the “pIC50 5-HT1A” value in assay [1] came to 6.6. The “pIC50 D2” value in assay [2] is recorded as less than 6. The “pIC50 D3” value in assay [3] worked out at 6.2. Moreover, in assay [4], the “pIC50 5HTT” value worked out at 7.1.
On the same counts, the results for `COc1cc2c(cc1OC)C1=NOC(CN3CCC(c4c[nH]c5ccc(F)cc45)CC3)C1CO2` (single isomer, unassigned) [Compound 11] are 8.9, 7.2, 7.2 and 6.9.
With `COc1cc2c(cc1OC)C1=NOC(CN3CC=C(c4c[nH]c5ccc(F)cc45)CC3)C1CO2` (single isomer, unassigned) [Compound 12], the “pIC50 5-HT1A” value in assay [1] is 7.6. Moreover, the “pIC50 D2” value in assay [2] is recorded as 6.5. For the same compound, the “pIC50 D3” value in assay [3] was found to be 7.3. Also, the “pIC50 5HTT” value in assay [4] is 8.0.
On the same counts, the results for `COc1cc2c(cc1OC)C1=NOC(CN3CC=C(c4c[nH]c5cccc(F)c45)CC3)C1CO2` (single isomer, unassigned) [Compound 13] are 8.7, 6.2, 6.8 and 7.7.
Consider `COc1cc2c(cc1OC)C1=NOC(CN3CC=C(c4c[nH]c5ccccc45)CC3)C1CO2` (single isomer, unassigned) [Compound 14], for which, in assay [1], the “pIC50 5-HT1A” value is 8.3. Also, the “pIC50 D2” value in assay [2] is on record as 6.8. In addition, the “pIC50 D3” value in assay [3] worked out at 6.5. Further, in assay [4], the “pIC50 5HTT” value is given as 7.5.
In the same order, the values of `COc1cc2c(cc1OC)C1=NOC(CN3CCC(c4c[nH]c5ccc(F)cc45)CC3)C1CO2` (single isomer, unassigned) [Compound 15] are 7.2, 6.1, 6.4 and 7.1.
In the same order, the values of `COc1cc2c(cc1OC)C1=NOC(CN3CC=C(c4c[nH]c5cccc(F)c45)CC3)C1CO2` (single isomer, unassigned) [Compound 16] are 7.1, 6.0, 6.5 and 6.9.

The values above are taken from US7635696B2, “Isoxazoline-indole derivatives with an improved antipsychotic and anxiolytic activity” (Janssen Pharmaceutica N.V., priority 2004, dated 2009).
